Experimental data published in the NIST ThermoML archive (doi:10.1016/j.jct.2010.11.004).

Assay: excess molar enthalpy (molar enthalpy of mixing); xn = mol fraction of the nth substance listed
Settings: 298.15 K, 101 kPa, Liquid, ISOTHERMAL TITRATION CALORIMETRY

CCCCCOCCCCC [dipentyl ether] + CCCCCCCCCCCC
Settings | excess molar enthalpy [kcal/mol]
x1 = 0.0242 | 0.00454
x1 = 0.0473 | 0.00884
x1 = 0.0693 | 0.0122
x1 = 0.0903 | 0.0155
x1 = 0.1104 | 0.0184
x1 = 0.1296 | 0.021
x1 = 0.148 | 0.0234
x1 = 0.1657 | 0.0256
x1 = 0.1869 | 0.028
x1 = 0.2071 | 0.0301
x1 = 0.2262 | 0.032
x1 = 0.2445 | 0.0337
x1 = 0.2619 | 0.0351
x1 = 0.2786 | 0.0363
x1 = 0.2989 | 0.0378
x1 = 0.3181 | 0.039
x1 = 0.3363 | 0.0399
x1 = 0.3535 | 0.0409
x1 = 0.3699 | 0.0416
x1 = 0.3855 | 0.0423
x1 = 0.4003 | 0.0425
x1 = 0.4144 | 0.0428
x1 = 0.431 | 0.0433
x1 = 0.4466 | 0.0433
x1 = 0.4614 | 0.0435
x1 = 0.4754 | 0.0435
x1 = 0.4887 | 0.0435
x1 = 0.5014 | 0.0433
x1 = 0.5129 | 0.0433
x1 = 0.5241 | 0.0433
x1 = 0.5358 | 0.043
x1 = 0.5481 | 0.043
x1 = 0.5609 | 0.0428
x1 = 0.5743 | 0.0425
x1 = 0.5884 | 0.0423
x1 = 0.6031 | 0.0418
x1 = 0.6161 | 0.0413
x1 = 0.6297 | 0.0409
x1 = 0.644 | 0.0402
x1 = 0.6589 | 0.0397
x1 = 0.6745 | 0.0387
x1 = 0.6908 | 0.0378
x1 = 0.7056 | 0.0366
x1 = 0.721 | 0.0354
x1 = 0.7371 | 0.0342
x1 = 0.7539 | 0.0327
x1 = 0.7715 | 0.0313
x1 = 0.79 | 0.0294
x1 = 0.8057 | 0.028
x1 = 0.8221 | 0.0261
x1 = 0.8391 | 0.0241
x1 = 0.8569 | 0.022
x1 = 0.8754 | 0.0196
x1 = 0.8947 | 0.0167
x1 = 0.9107 | 0.0146
x1 = 0.9273 | 0.0122
x1 = 0.9445 | 0.00956
x1 = 0.9623 | 0.00645
x1 = 0.9808 | 0.00335

CCCCCCCCC(C)=O [2-decanone] + CCCCCCCCCCCCCC
Settings | excess molar enthalpy [kcal/mol]
x1 = 0.0282 | 0.0361
x1 = 0.0549 | 0.0664
x1 = 0.0805 | 0.092
x1 = 0.1041 | 0.114
x1 = 0.1268 | 0.132
x1 = 0.1484 | 0.148
x1 = 0.1741 | 0.165
x1 = 0.1983 | 0.18
x1 = 0.2212 | 0.192
x1 = 0.2427 | 0.202
x1 = 0.2632 | 0.211
x1 = 0.2825 | 0.218
x1 = 0.3044 | 0.225
x1 = 0.325 | 0.23
x1 = 0.3444 | 0.235
x1 = 0.3628 | 0.238
x1 = 0.3801 | 0.241
x1 = 0.3965 | 0.243
x1 = 0.4145 | 0.245
x1 = 0.4313 | 0.245
x1 = 0.4472 | 0.246
x1 = 0.4623 | 0.246
x1 = 0.4765 | 0.245
x1 = 0.4901 | 0.245
x1 = 0.5029 | 0.244
x1 = 0.5151 | 0.242
x1 = 0.5292 | 0.241
x1 = 0.5425 | 0.239
x1 = 0.555 | 0.236
x1 = 0.5669 | 0.234
x1 = 0.5782 | 0.232
x1 = 0.5889 | 0.229
x1 = 0.5991 | 0.227
x1 = 0.6088 | 0.224
x1 = 0.6201 | 0.221
x1 = 0.6308 | 0.217
x1 = 0.6408 | 0.214
x1 = 0.6504 | 0.211
x1 = 0.6594 | 0.208
x1 = 0.668 | 0.205
x1 = 0.6762 | 0.202
x1 = 0.684 | 0.199
x1 = 0.7031 | 0.189
x1 = 0.7191 | 0.182
x1 = 0.7334 | 0.176
x1 = 0.7483 | 0.169
x1 = 0.7638 | 0.162
x1 = 0.7799 | 0.154
x1 = 0.7968 | 0.145
x1 = 0.8144 | 0.135
x1 = 0.8298 | 0.126
x1 = 0.8458 | 0.116
x1 = 0.8624 | 0.106
x1 = 0.8797 | 0.0939
x1 = 0.8977 | 0.0815
x1 = 0.9133 | 0.07
x1 = 0.9294 | 0.0578
x1 = 0.9461 | 0.0452
x1 = 0.9634 | 0.0311
x1 = 0.9814 | 0.016

CCCCCCCCC(C)=O [2-decanone] + CCCCCCCCCCCC
Settings | excess molar enthalpy [kcal/mol]
x1 = 0.0258 | 0.0318
x1 = 0.0503 | 0.059
x1 = 0.0736 | 0.0822
x1 = 0.0958 | 0.102
x1 = 0.1169 | 0.119
x1 = 0.1371 | 0.134
x1 = 0.1612 | 0.15
x1 = 0.1841 | 0.164
x1 = 0.2057 | 0.175
x1 = 0.2262 | 0.185
x1 = 0.2456 | 0.193
x1 = 0.2641 | 0.2
x1 = 0.2847 | 0.206
x1 = 0.3042 | 0.211
x1 = 0.3226 | 0.216
x1 = 0.3401 | 0.219
x1 = 0.3567 | 0.222
x1 = 0.3725 | 0.224
x1 = 0.3897 | 0.226
x1 = 0.406 | 0.227
x1 = 0.4215 | 0.228
x1 = 0.4362 | 0.228
x1 = 0.4501 | 0.227
x1 = 0.4634 | 0.227
x1 = 0.4782 | 0.226
x1 = 0.4923 | 0.225
x1 = 0.5055 | 0.224
x1 = 0.5182 | 0.222
x1 = 0.5302 | 0.22
x1 = 0.5416 | 0.218
x1 = 0.5543 | 0.216
x1 = 0.5663 | 0.214
x1 = 0.5777 | 0.211
x1 = 0.5885 | 0.209
x1 = 0.5987 | 0.206
x1 = 0.6049 | 0.204
x1 = 0.6179 | 0.201
x1 = 0.6311 | 0.197
x1 = 0.6448 | 0.193
x1 = 0.6592 | 0.188
x1 = 0.6742 | 0.183
x1 = 0.6899 | 0.178
x1 = 0.704 | 0.173
x1 = 0.7187 | 0.167
x1 = 0.7341 | 0.161
x1 = 0.7501 | 0.154
x1 = 0.7668 | 0.146
x1 = 0.7843 | 0.137
x1 = 0.8 | 0.13
x1 = 0.8163 | 0.121
x1 = 0.8334 | 0.112
x1 = 0.8511 | 0.102
x1 = 0.8696 | 0.0918
x1 = 0.889 | 0.0798
x1 = 0.9057 | 0.0686
x1 = 0.9231 | 0.0571
x1 = 0.9412 | 0.0442
x1 = 0.96 | 0.0308
x1 = 0.9796 | 0.0158
